Source: paper PMC5794259, “Novel ATP-cone-driven allosteric regulation of ribonucleotide reductase via the radical-generating subunit” (eLife, 2018)
Several values for one entry are separate records, joined by “and”; a condition that tells them apart may be missing. Equal values may be shown once.

Assays:
[1] = test system: L. blandensis class I RNR; assay: Four-substrate activity assay, allosteric specificity regulation; format: biochemical, Leeuwenhoekiella blandensis; conditions: all four substrates 0.5 mM each, effector 2 mM, 1 µM NrdB and 4 µM NrdA
Procedure: (§1) Enzyme assays were performed at room temperature in 50 mM Tris-HCl at pH 8 in volumes of 50 μl. Reaction conditions, giving maximal activity were determined experimentally. […] Mixtures of 0.5 μM NrdA and 2 μM wild type NrdB or NrdB∆99 (for determination of s-site KL) (Figure 3a–b) or 0.5 μM of NrdB and 2 uM NrdA (for determination of a-site KL), (Figure 3c–f) were used. Some components were explicitly varied in specific experiments. Generally, 0.8 mM CDP was used as substrate. […] When dTTP was used as an s-site effector, 0.5 mM or 0.8 mM GDP was used as substrate. In four substrate assays, the four substrates CDP, ADP, GDP and UDP were simultaneously present in the mixture at concentrations of 0.5 mM each. The substrate mixture was added last to start the reactions. Certain assays were performed in the presence of Mn(CH3COO)2 or FeNH4(SO4): 20 μM of the indicated metal was added to 10 μM NrdB or NrdB∆99 protein, incubated for 10 min, mixed with NrdA and added to the reaction mixture.
(§2) Enzyme reactions were incubated for 10–30 min and then stopped by the addition of methanol. The chosen incubation time gave a maximum substrate turnover of 30%. […] Compound identification was achieved by comparison with injected standards. Relative quantification was obtained by peak height measurements in the chromatogram (UV absorbance at 271 nm) in relation to standards. Specific activities of either NrdA (Figure 2a–b) or NrdB (Figure 2c–f) were determined. Specific activities varied between protein preparations. In some cases the data was standardized to activity percent, where 100% was determined as maximum enzyme activity in a specific condition.

[2] = target: L. blandensis RNR, a-site (NrdB-linked ATP-cone) (Leeuwenhoekiella blandensis, UniProt A3XHF9); assay: Enzyme activity assay with wild type NrdB (overall activity regulation, a-site); format: biochemical; conditions: for interaction with the a-site (effect on GDP reduction): 2 mM nucleotide, s-site saturating dTTP (2 mM), 4 µM NrdA and 1 µM NrdB
Procedure: as §1, §2
(§3) From a direct plot of activity versus concentration of effector, the KL values for binding of effectors to the s-site and the a-site, were calculated in SigmaPlot using the equation: V=Vmax×[dNTP]/(KL+[dNTP]) and Ki for non-competitive dATP inhibition at NrdB was calculated in Sigmaplot using the equation: V=Vmax/(1+[dNTP]/Ki)

[3] = target: T1, NrdB (Leeuwenhoekiella blandensis, UniProt A3XHF9); assay: Isothermal titration calorimetry (ITC), nucleotide binding to NrdB; conditions: 10°C
Procedure: Isothermal titration calorimetry (ITC) experiments were carried out on a MicroCal PEAQ-ITC system (Malvern Instruments Ltd) in a buffer containing 25 mM HEPES (pH 7.65), 150 mM NaCl, and 10% glycerol, 2 mM tris(2-carboxyethyl)phosphine, and 5 mM MgCl2. Measurements were done at 10°C. The initial injection volume was 0.4 μl over a duration of 0.8 s. All subsequent injection volumes were 2–2.5 μl over 4–5 s with a spacing of 150 s between the injections. Data for the initial injection were not considered. For dATP binding analysis, the concentration of NrdB in the cell was 12 µM and dATP in syringe 120 or 140 µM. Reverse titrations were performed with 113 µM NrdB in the syringe and 12 or 30 µM dATP in the cell. For titration of dATP into NrdB∆99, protein concentration in the cell and dATP concentration in the syringe were 50 µM and 900 µM respectively. […] For titration of ATP into NrdB, cell and syringe concentrations were 50 and 1600 µM respectively. The data were analyzed using the built-in one set of sites model of the MicroCal PEAQ-ITC Analysis Software (Malvern Instruments Ltd). A fixed ligand/protein stoichiometry of 2 was used for dATP to NrdB titrations. Standard deviations in thermodynamic parameters, N and Kd were estimated from the fits of three different titrations.

[4] = target: T2, s-site in NrdA (Leeuwenhoekiella blandensis, UniProt A3XHF8); assay: Enzyme activity assay, CDP reduction, effector titration with NrdB∆99 (s-site); format: biochemical; conditions: 0.5 µM NrdA and 2 µM NrdB∆99, read-out: KL (s-site), concentration of allosteric effector that gives half maximal enzyme activity
T2 sequence (A3XHF8 1-600): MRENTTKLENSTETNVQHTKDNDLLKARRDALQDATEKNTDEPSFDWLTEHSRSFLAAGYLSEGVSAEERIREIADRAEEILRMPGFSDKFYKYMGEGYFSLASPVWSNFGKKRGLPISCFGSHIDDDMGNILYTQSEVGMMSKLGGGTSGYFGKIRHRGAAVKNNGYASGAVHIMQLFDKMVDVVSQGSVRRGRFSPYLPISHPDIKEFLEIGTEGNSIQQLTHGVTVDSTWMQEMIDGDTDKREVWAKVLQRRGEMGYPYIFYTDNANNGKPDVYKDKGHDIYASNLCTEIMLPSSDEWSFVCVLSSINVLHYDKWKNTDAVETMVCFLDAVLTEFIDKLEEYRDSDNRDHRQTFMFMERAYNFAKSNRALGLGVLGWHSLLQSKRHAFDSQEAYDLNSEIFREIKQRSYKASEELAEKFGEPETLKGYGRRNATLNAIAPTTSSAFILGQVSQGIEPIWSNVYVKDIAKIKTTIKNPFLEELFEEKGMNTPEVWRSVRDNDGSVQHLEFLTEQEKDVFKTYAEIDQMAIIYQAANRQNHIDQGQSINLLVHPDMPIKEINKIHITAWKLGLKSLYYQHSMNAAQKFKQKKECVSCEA
T2 sequence (A3XHF9 100-427 partner): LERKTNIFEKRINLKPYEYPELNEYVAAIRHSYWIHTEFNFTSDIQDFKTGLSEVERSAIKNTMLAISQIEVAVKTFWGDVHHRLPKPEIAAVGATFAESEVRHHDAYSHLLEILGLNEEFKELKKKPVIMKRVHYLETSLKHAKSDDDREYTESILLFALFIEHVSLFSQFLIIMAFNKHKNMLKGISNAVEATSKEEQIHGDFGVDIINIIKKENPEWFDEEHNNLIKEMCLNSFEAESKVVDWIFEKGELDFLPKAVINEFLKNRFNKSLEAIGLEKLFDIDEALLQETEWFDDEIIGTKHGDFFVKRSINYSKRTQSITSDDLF
Procedure: (§4) Enzyme assays were performed at room temperature in 50 mM Tris-HCl at pH 8 in volumes of 50 μl. Reaction conditions, giving maximal activity were determined experimentally. […] Mixtures of 0.5 μM NrdA and 2 μM wild type NrdB or NrdB∆99 (for determination of s-site KL) (Figure 3a–b) or 0.5 μM of NrdB and 2 uM NrdA (for determination of a-site KL), (Figure 3c–f) were used. Some components were explicitly varied in specific experiments. Generally, 0.8 mM CDP was used as substrate. […] When dTTP was used as an s-site effector, 0.5 mM or 0.8 mM GDP was used as substrate. […]
Enzyme reactions were incubated for 10–30 min and then stopped by the addition of methanol. […] Relative quantification was obtained by peak height measurements in the chromatogram (UV absorbance at 271 nm) in relation to standards. Specific activities of either NrdA (Figure 2a–b) or NrdB (Figure 2c–f) were determined. […] In some cases the data was standardized to activity percent, where 100% was determined as maximum enzyme activity in a specific condition.
as §3

[5] = target: T1, NrdB; assay: GEMMA analysis of NrdB oligomers
Procedure: In GEMMA, biomolecules are electrosprayed into gas phase, neutralized to singly charged particles, and the gas phase electrophoretic mobility is measured with a differential mobility analyzer. The mobility of an analyzed particle is proportional to its diameter, which therefore allows for quantitative analysis of the different particle sizes contained in a sample ([Kaufman et al., 1996]). The GEMMA instrumental setup and general procedures were as described previously ([Rofougaran et al., 2008]). NrdA, NrdB and NrdB∆99 proteins were equilibrated by Sephadex G-25 chromatography into a buffer containing 100 mM ammonium acetate, pH 7.8. In addition, 2 mM DTT was added to the NrdA protein solutions to increase protein stability. Prior to GEMMA analysis, the protein samples were diluted to a concentration of 0.025–0.1 mg/ml in a buffer containing 20 mM ammonium acetate, pH 7.5, 0.005% (v/v) Tween 20, nucleotides (when indicated), and magnesium acetate (equimolar to the total nucleotide concentration), incubated for 5 min at room temperature, centrifuged and applied to the GEMMA instrument. Protein concentrations higher than normally recommended for GEMMA were needed to see the larger oligomeric complexes and the experiments to measure NrdA-NrdB interactions were run at as low flow rate as possible (driven by 1.4 Psi pressure) to minimize false interactions that may appear with elevated protein concentration if the flow-rate recommended by the manufacturer is used (3.7 Psi). Most of our experiments were performed with a flow rate driven by 2 Psi.

[6] = test system: L. blandensis RNR (wild-type NrdB or NrdB∆99); assay: Metal-dependency of enzyme activity; format: biochemical, Leeuwenhoekiella blandensis; conditions: metal added to cultures or 20 µM divalent metal ions to 10 µM NrdB
Procedure: Overnight cultures of E. coli BL21(DE3)/pET28a(+) bearing pET-nrdA, pET-nrdB and pET-nrdB∆99 were diluted to an absorbance at 600 nm of 0.1 in LB (Luria-Bertani) liquid medium, containing kanamycin (50 μg/ml) and shaken vigorously at 37°C. At an absorbance at 600 nm of 0.8, isopropyl-β-D-thiogalactopyranoside (Sigma) was added to a final concentration of 0.01 mM for NrdA expression and 0.5 mM for NrdB and NrdB∆99 expression. For particular experiments, 0.5 mM MnSO4 or 0.5 mM FeNH4(SO4)2 or the combination of both metals (0.4 mM and 0.25 mM respectively) were added to NrdB∆99 cultures. The cells were grown overnight at 14°C for NrdA expression and 20°C for NrdB and NrdB∆99 expression and harvested by centrifugation.
as §4

Sequence of L. blandensis RNR, a-site (NrdB-linked ATP-cone) (A3XHF9 entry or part of it, one chain of several): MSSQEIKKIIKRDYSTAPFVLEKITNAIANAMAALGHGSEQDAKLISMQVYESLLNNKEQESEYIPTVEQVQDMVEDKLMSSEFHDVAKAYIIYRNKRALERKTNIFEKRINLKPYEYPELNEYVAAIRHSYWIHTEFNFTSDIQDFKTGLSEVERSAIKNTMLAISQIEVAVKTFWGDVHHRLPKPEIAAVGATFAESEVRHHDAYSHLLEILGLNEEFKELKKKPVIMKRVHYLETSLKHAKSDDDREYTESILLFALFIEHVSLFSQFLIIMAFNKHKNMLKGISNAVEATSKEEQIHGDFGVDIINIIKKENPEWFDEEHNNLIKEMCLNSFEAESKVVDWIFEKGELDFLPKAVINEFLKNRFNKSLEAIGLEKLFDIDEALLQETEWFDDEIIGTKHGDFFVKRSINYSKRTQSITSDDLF
T1 sequence (A3XHF9 entry or part of it): as the sequence (A3XHF9 entry or part of it, one chain of several) above

Cc1cn([C@H]2C[C@H](O)[C@@H](COP(=O)(O)OP(=O)(O)OP(=O)(O)O)O2)c(=O)[nH]c1=O [dTTP]
effect of s-site effector on substrate reduction [1]: stimulated the reduction of GDP

Nc1ncnc2c1ncn2[C@H]1C[C@H](O)[C@@H](COP(=O)(O)O)O1 [dAMP]
interaction with the a-site (effect on GDP reduction) [2]: no effect

Nc1ncnc2c1ncn2[C@@H]1O[C@H](COP(=O)(O)O)[C@@H](O)[C@H]1O [AMP]
interaction with the a-site (effect on GDP reduction) [2]: no effect

Nc1ncnc2c1ncn2[C@H]1C[C@H](O)[C@@H](COP(=O)(O)OP(=O)(O)OP(=O)(O)O)O1 [dATP]
-TΔS [3]: 11.2 ± 2.39 kcal/mol
ΔG [3]: -7.89 kcal/mol
ΔH [3]: -18.9 kcal/mol and -18.9 ± 2.39 kcal/mol
Kd ([3]; one-set-of-sites model): 1 ± 0.2 µM
N (binding stoichiometry) ([3]; per NrdB monomer, for dATP kept constant N = 2, 59% active protein): 2
EC50 [4]: 1.4 µM
Ki [2]: 20 µM
concentration at which inhibitory ([2]; CDP reduction, 0.5 µM NrdA and 2 µM wild type NrdB, activates at low concentrations): ≥ 30 µM
effect on NrdB oligomer equilibrium ([5]; 50 µM nucleotide, 0.1 mg/ml NrdB (~2 µM)): dramatically shifted the equilibrium towards tetramers β4
EC50 ([5]; GEMMA, 2 Psi, NrdB (~1 μM), read-out: concentration at which NrdB tetramers reach half-maximum mass concentration): ~10 µM

O=S(=O)([O-])[O-].O=S(=O)([O-])[O-].[Fe+2].[NH4+].[NH4+] [Fe^2+, FeNH4(SO4)]
effect of metal on catalytic activity [6]: inhibition
